Laboratory results reported in ChEMBL document CHEMBL5608253, “Discovery and Optimization of Aryl Piperidinone Ureas as Selective Formyl Peptide Receptor 2 Agonists” (ACS Med Chem Lett, 2024).

Assays:
[1] = Permeability across apical to basal side in human Caco-2 cells; type: ADME, cell-based; conditions: read-out: permeability
Cytochrome P450 2C19 = Cytochrome P450 2C19 (Homo sapiens, UniProt P33261); assay: Inhibition of CYP2C19 (unknown origin); type: ADME
Cytochrome P450 3A4 = Cytochrome P450 3A4 (Homo sapiens, UniProt P08684); assay: Inhibition of CYP3A4 (unknown origin); type: ADME
Cytochrome P450 2C9 = Cytochrome P450 2C9 (Homo sapiens, UniProt P11712); assay: Inhibition of CYP2C9 (unknown origin); type: ADME
[2] = Permeability across basal to apical side in human Caco-2 cells; type: ADME, cell-based; conditions: read-out: permeability
[3] = AUC (total) in rat at 3 mg/kg, po; type: ADME, organism-based; conditions: in vivo
Cytochrome P450 1A2 = biological target: T1, Cytochrome P450 1A2 (Homo sapiens, UniProt P05177); assay: Inhibition of CYP1A2 (unknown origin); type: ADME
T1 sequence (P05177 whole entry): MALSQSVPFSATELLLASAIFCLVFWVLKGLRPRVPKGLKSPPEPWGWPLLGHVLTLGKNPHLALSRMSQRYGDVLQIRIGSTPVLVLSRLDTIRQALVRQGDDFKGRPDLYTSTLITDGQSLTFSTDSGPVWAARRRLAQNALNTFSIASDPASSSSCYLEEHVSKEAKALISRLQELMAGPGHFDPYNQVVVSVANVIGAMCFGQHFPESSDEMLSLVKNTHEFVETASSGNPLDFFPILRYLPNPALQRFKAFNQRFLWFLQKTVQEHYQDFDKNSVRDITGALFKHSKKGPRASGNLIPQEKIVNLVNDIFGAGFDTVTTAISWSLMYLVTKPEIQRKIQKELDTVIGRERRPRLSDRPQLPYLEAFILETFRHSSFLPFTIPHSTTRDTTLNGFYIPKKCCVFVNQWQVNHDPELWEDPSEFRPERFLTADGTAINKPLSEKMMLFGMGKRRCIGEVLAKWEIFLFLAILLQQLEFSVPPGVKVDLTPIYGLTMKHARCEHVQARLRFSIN

[4] = Protein binding in human plasma assessed as free fraction; type: ADME, cell-free
[5] = Cmax in rat at 3 mg/kg, po; type: ADME, organism-based; conditions: in vivo
Cytochrome P450 2D6 = Cytochrome P450 2D6 (Homo sapiens, UniProt P10635); assay: Inhibition of CYP2D6 (unknown origin); type: ADME
[6] = Protein binding in rat plasma assessed as free fraction; type: ADME, cell-free
[7] = biological target: T2, N-formyl peptide receptor 2 (Homo sapiens, UniProt P25090); assay: Agonist activity at human FPR2 expressed in CHO cells assessed as forskolin -induced cAMP level incubated for 30 mins in presence of IBMX by HTRF HiRange cAMP assay; type: functional, cell-based
T2 sequence (P25090 whole entry): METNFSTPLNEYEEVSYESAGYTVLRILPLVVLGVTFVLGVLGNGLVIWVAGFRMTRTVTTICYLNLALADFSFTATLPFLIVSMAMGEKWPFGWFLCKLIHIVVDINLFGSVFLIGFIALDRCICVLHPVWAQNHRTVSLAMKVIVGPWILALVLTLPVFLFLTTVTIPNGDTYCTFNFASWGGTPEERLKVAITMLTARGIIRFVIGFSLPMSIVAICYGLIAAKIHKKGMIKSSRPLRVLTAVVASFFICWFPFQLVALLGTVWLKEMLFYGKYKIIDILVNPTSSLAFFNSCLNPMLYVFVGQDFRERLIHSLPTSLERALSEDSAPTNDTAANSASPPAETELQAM

[8] = Drug concentration in plasma of LPS-treated rat model at 10 mg/kg measured after 2 hrs; type: ADME, organism-based
Rattus norvegicus = assay: Anti-inflammatory activity in LPS-treated rat model assessed as increase in IL-10 level at 10 mg/kg measured after 2 hrs relative to control; type: functional
[9] = Agonist activity at rat FPR2 by cAMP assay

Cytochrome P450 2D6, sequence (P10635 whole entry): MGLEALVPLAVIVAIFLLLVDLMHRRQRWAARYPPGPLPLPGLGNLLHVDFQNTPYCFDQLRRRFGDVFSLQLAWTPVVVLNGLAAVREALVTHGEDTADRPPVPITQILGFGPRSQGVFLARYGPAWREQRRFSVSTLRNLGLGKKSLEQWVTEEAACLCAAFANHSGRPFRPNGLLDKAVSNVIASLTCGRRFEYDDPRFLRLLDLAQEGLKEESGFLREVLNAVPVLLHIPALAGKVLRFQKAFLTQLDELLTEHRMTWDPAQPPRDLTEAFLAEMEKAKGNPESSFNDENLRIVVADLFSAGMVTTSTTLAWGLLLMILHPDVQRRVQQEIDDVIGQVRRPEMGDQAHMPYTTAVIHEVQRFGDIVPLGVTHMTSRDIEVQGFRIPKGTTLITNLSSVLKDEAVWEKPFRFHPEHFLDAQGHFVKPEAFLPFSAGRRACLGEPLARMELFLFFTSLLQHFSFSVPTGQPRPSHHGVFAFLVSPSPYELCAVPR
Cytochrome P450 3A4, sequence (P08684 whole entry): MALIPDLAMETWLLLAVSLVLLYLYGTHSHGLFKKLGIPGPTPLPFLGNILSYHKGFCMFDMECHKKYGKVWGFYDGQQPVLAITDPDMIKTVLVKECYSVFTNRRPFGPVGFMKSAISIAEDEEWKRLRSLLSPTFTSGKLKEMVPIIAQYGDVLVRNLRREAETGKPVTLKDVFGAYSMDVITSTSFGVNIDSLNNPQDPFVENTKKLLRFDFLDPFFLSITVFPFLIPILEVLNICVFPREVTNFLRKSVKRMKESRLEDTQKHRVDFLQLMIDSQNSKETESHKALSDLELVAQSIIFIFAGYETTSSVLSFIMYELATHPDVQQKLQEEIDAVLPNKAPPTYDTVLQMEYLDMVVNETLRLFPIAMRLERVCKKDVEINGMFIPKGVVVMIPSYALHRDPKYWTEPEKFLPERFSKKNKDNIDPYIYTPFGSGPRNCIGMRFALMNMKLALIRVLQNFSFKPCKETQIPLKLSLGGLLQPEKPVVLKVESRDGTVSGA
Cytochrome P450 2C9, sequence (P11712 whole entry): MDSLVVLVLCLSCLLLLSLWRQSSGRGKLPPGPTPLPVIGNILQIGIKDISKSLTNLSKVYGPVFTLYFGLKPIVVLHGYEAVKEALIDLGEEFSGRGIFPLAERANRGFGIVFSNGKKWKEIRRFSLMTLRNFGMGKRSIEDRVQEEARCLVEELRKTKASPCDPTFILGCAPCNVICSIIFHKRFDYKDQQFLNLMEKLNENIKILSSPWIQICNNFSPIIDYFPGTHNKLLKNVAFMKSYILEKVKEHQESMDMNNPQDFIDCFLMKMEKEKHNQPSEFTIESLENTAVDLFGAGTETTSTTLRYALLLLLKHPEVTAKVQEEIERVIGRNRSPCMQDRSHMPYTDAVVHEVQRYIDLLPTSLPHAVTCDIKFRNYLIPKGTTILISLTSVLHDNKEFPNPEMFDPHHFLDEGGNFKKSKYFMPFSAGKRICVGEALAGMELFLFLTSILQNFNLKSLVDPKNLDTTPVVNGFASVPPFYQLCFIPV
Cytochrome P450 2C19, sequence (P33261 whole entry): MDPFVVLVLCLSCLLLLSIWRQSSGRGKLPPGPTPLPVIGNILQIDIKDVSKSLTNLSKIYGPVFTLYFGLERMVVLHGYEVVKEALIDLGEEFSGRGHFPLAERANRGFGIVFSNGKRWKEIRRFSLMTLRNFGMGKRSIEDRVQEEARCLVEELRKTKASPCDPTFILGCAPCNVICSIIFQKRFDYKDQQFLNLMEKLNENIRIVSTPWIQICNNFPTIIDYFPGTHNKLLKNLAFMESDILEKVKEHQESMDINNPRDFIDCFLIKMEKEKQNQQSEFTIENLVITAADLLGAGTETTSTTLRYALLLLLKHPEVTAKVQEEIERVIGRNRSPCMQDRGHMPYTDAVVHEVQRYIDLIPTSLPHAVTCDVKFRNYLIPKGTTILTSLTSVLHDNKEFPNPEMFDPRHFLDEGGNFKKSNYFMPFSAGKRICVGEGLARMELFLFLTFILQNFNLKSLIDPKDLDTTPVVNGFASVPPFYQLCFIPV

Papp A→B [1] | INH (Cytochrome P450 2C19) | INH (Cytochrome P450 3A4) | INH (Cytochrome P450 2C9) | Papp B→A [2] | AUC [3] | INH (Cytochrome P450 1A2) | fraction unbound [4] | Cmax [5] | INH (Cytochrome P450 2D6) | fraction unbound [6] | EC50 [7] | concentration at 2 h [8] | EC50 [9] | Compound | Activity (Rattus norvegicus)
11 ×10⁻⁶ cm/s | > 10 µM | > 10 µM | > 10 µM | 44 ×10⁻⁶ cm/s | 1.7 µM·h | > 10 µM | 0.12 | 830 nM | > 10 µM | 0.08 |  |  |  | COc1cnc(NC(=O)N[C@@H]2CCCN(c3ccc(-c4ccccc4NS(C)(=O)=O)cc3)C2=O)c(F)c1 | 
 |  |  |  |  |  |  |  |  |  |  | 4.5 nM |  |  | CS(=O)(=O)Nc1ccccc1-c1ccc(N2CCC[C@@H](NC(=O)Nc3ccc(C(F)(F)F)cn3)C2=O)cc1 | 
 |  |  |  |  |  |  |  |  |  |  | 1.6 nM |  |  | CS(=N)(=O)c1ccccc1-c1ccc(N2CCC[C@@H](NC(=O)Nc3ccc(C(F)(F)F)cc3)C2=O)cc1 (stereo in doubt; 9) | 
 |  |  |  |  |  |  |  |  |  |  | 9 nM |  |  | CS(=N)(=O)c1ccccc1-c1ccc(N2CCC[C@@H](NC(=O)Nc3ccc(C(F)(F)F)cc3)C2=O)cc1 (stereo in doubt; 10) | 
 |  |  |  |  |  |  |  |  |  |  | 2.8 nM |  |  | NC(=O)c1ccccc1-c1ccc(N2CCC[C@@H](NC(=O)Nc3ccc(C(F)(F)F)cc3)C2=O)cc1 | 
 |  |  |  |  |  |  |  |  |  |  | 0.6 nM |  |  | CS(=O)(=O)Nc1ccccc1-c1ccc(N2CCC[C@@H](NC(=O)Nc3ccc(C(F)(F)F)cc3F)C2=O)cc1 | 
4.4 ×10⁻⁶ cm/s | > 10 µM | > 10 µM | > 10 µM | 29.1 ×10⁻⁶ cm/s | 2.7 µM·h | > 10 µM | 0.03 | 610 nM | > 10 µM | 0.03 | 0.2 nM | 1700 nM | 0.6 nM | CS(=O)(=O)Nc1ccccc1-c1ccc(N2CCC[C@@H](NC(=O)Nc3ccc(Cl)cc3F)C2=O)cc1 | 128%
 |  |  |  |  |  |  |  |  |  |  | 0.3 nM |  |  | COc1ccc(NC(=O)N[C@@H]2CCCN(c3ccc(-c4ccccc4NS(C)(=O)=O)cc3)C2=O)cc1 | 
< 1.5 ×10⁻⁶ cm/s | > 10 µM | > 10 µM | > 10 µM | 32.5 ×10⁻⁶ cm/s | 0.45 µM·h | > 10 µM | 0.01 | 110 nM | > 10 µM | 0.01 | 0.14 nM | 610 nM | 0.5 nM | CS(=O)(=O)Nc1ccccc1-c1ccc(N2CCC[C@@H](NC(=O)Nc3ccc(C(F)(F)F)cc3)C2=O)cc1 | 183%
 |  |  |  |  |  |  |  |  |  |  | 10 nM |  |  | CS(=O)(=O)Nc1ccccc1-c1ccc(N2CCC[C@@H](NC(=O)Nc3ccc(C(F)(F)F)nc3)C2=O)cc1 | 
< 1.5 ×10⁻⁶ cm/s | > 10 µM | > 10 µM | > 10 µM | 41.8 ×10⁻⁶ cm/s | 1.13 µM·h | > 10 µM | 0.02 | 300 nM | > 10 µM | 0.01 | 0.15 nM | 490 nM | 0.4 nM | CS(=O)(=O)Nc1ccccc1-c1ccc(N2CCC[C@@H](NC(=O)Nc3ccc(Cl)cc3)C2=O)cc1 | 140%
